The target in experiment [1] is human ferroportin (SLC40A1) fused in frame with the GFP protein (human) (UniProt Q9NP59). Description: cell-based or functional assay.
In experiment [2] the target is T1, ferroportin (Homo sapiens, UniProt Q9NP59).
T1 sequence (Q9NP59 1-571): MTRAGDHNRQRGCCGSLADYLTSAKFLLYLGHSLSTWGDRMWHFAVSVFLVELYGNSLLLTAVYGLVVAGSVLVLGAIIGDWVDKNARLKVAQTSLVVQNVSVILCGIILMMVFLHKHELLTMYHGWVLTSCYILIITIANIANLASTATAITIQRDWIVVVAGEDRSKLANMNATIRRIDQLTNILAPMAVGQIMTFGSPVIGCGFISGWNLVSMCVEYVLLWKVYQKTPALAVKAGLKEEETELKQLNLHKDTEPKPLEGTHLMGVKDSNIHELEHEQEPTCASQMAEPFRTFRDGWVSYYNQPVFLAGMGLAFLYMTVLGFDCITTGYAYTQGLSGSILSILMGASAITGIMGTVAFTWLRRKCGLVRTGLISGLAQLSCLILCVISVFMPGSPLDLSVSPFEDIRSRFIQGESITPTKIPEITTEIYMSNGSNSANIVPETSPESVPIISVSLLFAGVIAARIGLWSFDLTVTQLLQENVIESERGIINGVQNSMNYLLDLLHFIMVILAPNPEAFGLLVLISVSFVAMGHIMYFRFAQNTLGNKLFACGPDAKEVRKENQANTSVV
Description: FPN activity assay: ferroportin-GFP internalization/degradation in HEK293 cells. The class given is cell-based. Set-up: expressed in transfected cells. The settings on record: read-out: FPN IC50. As for the experimental part:
Following internalization, the ferroporin protein is degraded.
A retro inverse peptide is a peptide with a reversed sequence in all D amino acids. An example is that Hy-Glu-Thr-His-NH2 becomes Hy-DHis-DThr-DGlu-NH2. The EC50 of these reference compounds for ferroportin internalization/degradation was determined according to the FPN activity assay described above. These peptides served as control standards.

In experiment [3] the target is T1, ferroportin. Briefly: T47D cell-based ferroportin internalization assay in presence of mouse serum albumin (MSA). The arrangement: a human breast carcinoma adherent cell line which endogenously expresses ferroportin; host or cells: T47D. The gist of the method: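 Peptide potency for inducing ferroportin internalization was measured in T47D cells in the presence of serum albumin. Cells grown in RPMI with fetal bovine serum were seeded in 96-well plates at 80-100 k cells per well in 100 ul and rested overnight. Dilution series of test peptides were preincubated 30 min at room temperature, then added to the cells after the medium was aspirated.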

Where [4] appears, read: ferroportin-GFP internalization/degradation, HEK293 cells, Table 6E.
Where [5] appears, read: T47D internalization assay in presence of mouse serum albumin (MSA), Table 6E.

Like-named read-outs stand apart in the source and are kept apart here. Starred links: 1 amine or outer side, 2 acyl side, 3 side chain; linkers in the order of their positions; H or OH if unused. Positions of bridges follow the written chain, without caps; N, C: chain ends. Non-standard residues stand in square brackets, D forms with d. Residues, ends and D or L forms follow the SMILES beside them. Groups on a side chain read outwards from the residue. *: point of attachment. C18 diacid = O=C(O)CCCCCCCCCCCCCCCCC(=O)*; Dip = N[C@H](C(=O)O)C(c1ccccc1)c1ccccc1; Phenylacetyl(4-F) = O=C(Cc1ccc(F)cc1)*; γGlu = O=C(O)[C@H](CCC(=O)[*:2])N[*:1]; 1Nal = N[C@@H](Cc1cccc2ccccc12)C(=O)O; dNMeF = CN[C@H](Cc1ccccc1)C(=O)O; β3hF = N[C@H](CC(=O)O)Cc1ccccc1; NMeK = CN[C@@H](CCCCN)C(=O)O; Isovaleryl = CC(C)CC(=O)*; hCys = N[C@@H](CCS)C(=O)O; Dap = NC[C@H](N)C(=O)O; AEEA = NCCOCCOCC(=O)O

Results on six molecules are retold here after US20250277012A1 (Protagonist Therapeutics, Inc., priority 2021, published 2025).

One may read the IC50 as the midpoint of a concentration-inhibition curve.

The molecule Hepcidin (ligand) displayed a Potency EC50 in experiment [1] of 34 nM.
For the molecule `CC(C)CC(=O)N[C@@H](CCC(=O)O)C(=O)N[C@H](C(=O)N[C@@H](Cc1cnc[nH]1)C(=O)N[C@H](C(=O)N1CCC[C@H]1C(=O)N[C@H]1CSSC[C@@H](C(=O)N(C)[C@@H](CCCCNC(=O)COCCOCCNC(=O)COCCOCCNC(=O)[C@H](CN)NC(=O)CCCCCCCCCCCCCCCCC(=O)O)C(=O)N[C@H](CC(=O)N[C@H](CCCCN)C(=O)N(C)[C@H](Cc2ccccc2)C(N)=O)Cc2ccccc2)NC1=O)C(c1ccccc1)c1ccccc1)[C@@H](C)O` [compound 250] (Isovaleryl-ETH[Dip]PCC[NMeK]([AEEA-AEEA-Dap-C18 diacid])[β3hF][dK][dNMeF]-NH2; disulfide 6-7), the DC50 at ferroportin [2] (setting [4]) lay within 10 to 100 nM. The IC50 at ferroportin [3] (setting [5]) lay within 1 to 10 nM.
Consider `C[C@@H](O)[C@H](NC(=O)[C@H](CCC(=O)O)NC(=O)Cc1ccc(F)cc1)C(=O)N[C@@H](Cc1c[nH]cn1)C(=O)N[C@H](C(=O)N1CCC[C@H]1C(=O)N[C@H]1CSSC[C@@H](C(=O)N(C)[C@@H](CCCCNC(=O)COCCOCCNC(=O)COCCOCCNC(=O)[C@H](CN)NC(=O)CCCCCCCCCCCCCCCCC(=O)O)C(=O)N[C@H](CC(=O)N[C@H](CCCCN)C(N)=O)Cc2ccccc2)NC1=O)C(c1ccccc1)c1ccccc1` [compound 298] ({Phenylacetyl(4-F)}-ETH[Dip]PCC[NMeK]([AEEA-AEEA-Dap-C18 diacid])[β3hF][dK]-NH2; disulfide 6-7), for which, at ferroportin [2] (setting [4]), the DC50 was in the range of 10 to 100 nM. In addition, the IC50 on ferroportin [3] (setting [5]) fell in the range of 10 to 100 nM.
Consider `CC(C)CC(=O)N[C@@H](CCC(=O)O)C(=O)N[C@H](C(=O)N[C@@H](Cc1c[nH]cn1)C(=O)N[C@H](C(=O)N1CCC[C@H]1C(=O)N[C@H]1CSSC[C@@H](C(=O)N(C)[C@@H](CCCCNC(=O)COCCOCCNC(=O)COCCOCCNC(=O)[C@H](CN)NC(=O)CCCCCCCCCCCCCCCCC(=O)O)C(=O)N[C@H](CC(=O)N[C@H](CCCCN)C(=O)N[C@@H](Cc2cccc3ccccc23)C(N)=O)Cc2ccccc2)NC1=O)C(c1ccccc1)c1ccccc1)[C@@H](C)O` [compound 258] (Isovaleryl-ETH[Dip]PCC[NMeK]([AEEA-AEEA-Dap-C18 diacid])[β3hF][dK][1Nal]-NH2; disulfide 6-7), for which, on ferroportin [2] (setting [4]), the DC50 was in the range of 10 to 100 nM. For the same molecule, the IC50 on ferroportin [3] (setting [5]) is 10 to 100 nM.
Take `CC(C)CC(=O)N[C@@H](CCC(=O)O)C(=O)N[C@H](C(=O)N[C@@H](Cc1c[nH]cn1)C(=O)N[C@H](C(=O)N1CCC[C@H]1C(=O)N[C@H]1CSSC[C@@H](C(=O)N[C@@H](CCCCNC(=O)COCCOCCNC(=O)COCCOCCNC(=O)CC[C@H](NC(=O)CCCCCCCCCCCCCCCCC(=O)O)C(=O)O)C(=O)N[C@H](CC(=O)N[C@H](CCCCN)C(N)=O)Cc2ccccc2)NC1=O)C(c1ccccc1)c1ccccc1)[C@@H](C)O` [Compd ID 31, Isovaleric Acid-E-T-H-[Dpa]-P-[Cys]-[Cys]-[Lys(1PEG2_1PEG2_IsoGlu_C18_Diacid)]-[bhPhe]-[(D)Lys]-NH2] (Isovaleryl-ETH[Dip]PCCK([AEEA-AEEA-γGlu-C18 diacid])[β3hF][dK]-NH2; disulfide 6-7): the DC50 at ferroportin [2] (ferroportin-GFP HEK293 cells, at least 18 hours) fell in the range of 10 to 100 nM. In addition, at ferroportin [3] (T47D cells, 0.5% mouse serum albumin, 1 hr incubation), the IC50 lay in the range of 10 to 100 nM.
Consider `CC(C)CC(=O)N[C@@H](CCC(=O)O)C(=O)N[C@H](C(=O)N[C@@H](Cc1c[nH]cn1)C(=O)N[C@H](C(=O)N1CCC[C@H]1C(=O)N[C@H]1CCSSCC[C@@H](C(=O)N(C)[C@@H](CCCCNC(=O)COCCOCCNC(=O)COCCOCCNC(=O)[C@H](CN)NC(=O)CCCCCCCCCCCCCCCCC(=O)O)C(=O)N[C@H](CC(=O)N[C@H](CCCCN)C(N)=O)Cc2ccccc2)NC1=O)C(c1ccccc1)c1ccccc1)[C@@H](C)O` [compound 269] (Isovaleryl-ETH[Dip]P[hCys][hCys][NMeK]([AEEA-AEEA-Dap-C18 diacid])[β3hF][dK]-NH2; disulfide 6-7), for which the DC50 at ferroportin [2] (setting [4]) fell in the range of 10 to 100 nM. Also, the IC50 at ferroportin [3] (setting [5]) lay within 10 to 100 nM.
